Where two headings read alike, the source gives them in different places.
Tests used:
[1] = tested on: KKAY mice; assay: Hypoglycemic and hypolipidemic actions in mice (Test Example 1); assay type: in vivo; conditions: Mus musculus, po, 96 h, 0.005% in powdery diet, four days, non-treated group taken as 100%
Outline: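 KKAY mice (9 to 12 weeks old, 5 per group) were fed diet containing 0.005% test compound ad libitum for four days. Plasma glucose and triglycerides from orbital venous blood were measured enzymatically, reported as % decrease relative to untreated group (100%).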

[2] = molecular target: T1, PPARγ-RXRα heterodimer (Homo sapiens, UniProt P37231); assay: PPARγ-RXRα heterodimer ligand activity, luciferase reporter in PPARγ:RXRα:4ERPP/CHO-K1 cells (Test Example 3); assay type: cell-based; conditions: 18-48 hours, concentration for 50% of the maximum fold induction
T1 construct: expressed in transfected cells; host or cells: CHO-K1
T1 sequence (P37231 1-477 isoform P37231-2): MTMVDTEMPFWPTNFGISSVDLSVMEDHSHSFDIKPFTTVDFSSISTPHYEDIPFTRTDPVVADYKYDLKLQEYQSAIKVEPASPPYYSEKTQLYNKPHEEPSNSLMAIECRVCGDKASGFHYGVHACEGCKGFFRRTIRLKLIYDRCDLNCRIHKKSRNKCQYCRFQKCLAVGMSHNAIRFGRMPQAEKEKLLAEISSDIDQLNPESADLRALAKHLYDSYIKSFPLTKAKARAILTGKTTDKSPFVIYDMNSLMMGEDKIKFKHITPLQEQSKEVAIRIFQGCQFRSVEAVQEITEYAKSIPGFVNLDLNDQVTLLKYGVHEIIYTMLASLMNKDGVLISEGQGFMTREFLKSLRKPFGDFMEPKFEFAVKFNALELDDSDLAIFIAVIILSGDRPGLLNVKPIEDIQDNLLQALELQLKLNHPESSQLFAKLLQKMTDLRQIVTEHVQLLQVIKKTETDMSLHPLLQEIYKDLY
T1 sequence (P19793 1-462 partner): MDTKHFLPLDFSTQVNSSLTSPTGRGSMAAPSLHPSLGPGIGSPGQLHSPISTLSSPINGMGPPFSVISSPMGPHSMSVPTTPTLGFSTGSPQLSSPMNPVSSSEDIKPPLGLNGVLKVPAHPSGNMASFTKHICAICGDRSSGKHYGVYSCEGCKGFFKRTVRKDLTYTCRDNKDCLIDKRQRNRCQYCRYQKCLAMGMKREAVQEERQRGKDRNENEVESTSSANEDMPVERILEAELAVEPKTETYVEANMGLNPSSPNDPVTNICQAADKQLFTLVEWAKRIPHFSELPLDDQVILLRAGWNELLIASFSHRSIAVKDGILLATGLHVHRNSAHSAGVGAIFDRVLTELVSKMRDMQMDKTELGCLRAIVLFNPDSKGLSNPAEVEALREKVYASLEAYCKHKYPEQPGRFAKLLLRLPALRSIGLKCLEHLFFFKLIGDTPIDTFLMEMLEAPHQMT
Outline: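 Stable CHO-K1 line co-expressing hPPARγ/RXR with 4ERPP-TK luciferase reporter, 2×10^4 cells per well, treated 18-48 h at 37° C. in HAM F12 with 0.1% fatty acid-free BSA. Luciferase fold induction versus untreated taken as 1; EC50 is concentration giving 50% of maximal fold induction.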

[3] = rate of decrease in blood glucose level, read-out: Hypoglycemic action (%)
[4] = rate of decrease in blood triglyceride level, read-out: Hypolipidemic action (%)

EC50 [2] [nM] | Compound | inhibition in vivo at 0.005 % in diet [1, 3] [%] | inhibition in vivo at 0.005 % in diet [1, 4] [%]
82 | COc1cccc(CC(=O)O)c1OCCCc1cn(-c2ccc(C(F)(F)F)nn2)nc1C(C)C [Example 274, [2-(3-{3-isopropyl-1-[6-(trifluoromethyl)pyridazin-3-yl]-1H-pyrazol-4-yl}propoxy)-3-methoxyphenyl]acetic acid] | 50 | 60
100 | COc1cccc(CC(=O)O)c1OCCCc1cn(-c2ccc(Cl)cn2)nc1C(C)C [Example 311, (2-{3-[1-(5-chloro-2-pyridinyl)-3-isopropyl-1H-pyrazol-4-yl]propoxy}-3-methoxyphenyl)acetic acid] | 52 | 29
22 | CCC(CC)c1nn(-c2ccc(C(F)(F)F)nn2)cc1CCCOc1c(C)cccc1CC(=O)O [Example 340, [2-(3-{3-(1-ethylpropyl)-1-[6-(trifluoromethyl)pyridazin-3-yl]-1H-pyrazol-4-yl}propoxy)-3-methylphenyl]acetic acid] | 49 | 55
20 | CCC(CC)c1nn(-c2ccc(Br)cn2)cc1CCCOc1c(CC(=O)O)cccc1OC [Example 351, (2-{3-[1-(5-bromo-2-pyridinyl)-3-(1-ethylpropyl)-1H-pyrazol-4-yl]propoxy}-3-methoxyphenyl)acetic acid] | 51 | 49
